Experimental data published in patent US9000028B2, “Indole and indazole compounds as an inhibitor of cellular necrosis” (LG Life Sciences Ltd., priority 2007, dated 2015).
Where two headings read alike, the source gives them in different places.

System: primary hepatocytes isolated from rats
Test: Hepatocyte protective effect against substances deriving hepatocyte toxicity (WST-1 viability)
Assay type: cell-based
Conditions: doxorubicin, 24-48 h, read-out: EC50, cell protective effects against doxorubicin in hepatocytes
Method: Various endogenous/exogenous attacks on the cells trigger the mechanisms of cell death which is broadly classified into two types, i.e. apoptosis or necrosis. Using these cell death mechanisms, in the present experimental example, primary hepatocytes isolated from rats were treated with drugs which were clinically shown to result in serious side-effects of hepatocyte toxicity or various chemicals which derive cell death, and the compounds synthesized in the Examples were estimated for their hepatocyte protective effects, after 24-48 h. The substances used to derive hepatocyte death include CCl4, ActD, H2O2, doxorubicin, anti-Fas Ab/Actinomycin D, acetaminophen, EtOH, CdCl2, palmitate, stearate, cyclophosphamide, terfenadine, diclofenac, simvastatin, and adefovir. Primary hepatocytes were isolated using the method of Seglen PO (Experimental Cell Research 74 (1972) pp 450-454). Briefly, hepatocytes were isolated according to the two-step collagenase perfusion method, and dead cells were removed by low speed (500 rpm) centrifugation for 10 min using percoll gradient (Kreamer B L etc, In Vitro Cellular & Developmental Biology 22 (1986) pp 201-211). During this step, the viability of cells was maintained 90% or above. The cells were suspended in HepatoZYME media (Gibco BRL), and the number of cells was counted. 1.5×10^4 cells in 100 μl were placed into the collagen-coated 96-well plate (BD biocoat), and adhered on the bottom for 3-4 h.
In order to assess the hepatocyte protective effect, above adhered cells were pretreated with the Example compounds for 30 min. At this time, the concentration of the Example compounds were serially diluted by 2-fold or 3-fold over 5 steps starting from 30 uM, 10 uM or 1 uM depending on the experiments, and the final concentration of DMSO was adjusted to 0.2%. 30 min after the treatment by compounds, cells were treated by the substances deriving hepatocyte death or hepatotoxic drugs at the concentrations indicated in Table 1. After 24-48 h, the viability of cells was determined to estimate the hepatocyte protective effects. The viability of cells was determined using WST-1 (MK-400, […]) method by the absorbance at 440 nm. Hepatocyte protective effects of the Example compounds were represented by “EC50,” which was calculated from measured values. “EC50” herein means the concentration of the compound at which 50% of maximum protective effect is observed in the experiment.

`Clc1cc(NC2CCCCC2)c2[nH]c(-c3ccccc3)cc2c1` [Example 47, Cyclohexyl-(5-chloro-2-phenyl-1H-indol-7-yl)-amine] gave an EC50 (Rattus norvegicus, Hepatocyte) of 50 nM.
Work on `Clc1cc(NC2CCOCC2)c2[nH]c(-c3ccccc3)cc2c1` [Example 48, (Tetrahydropyran-4-yl)-(5-chloro-2-phenyl-1H-indol-7-yl)-amine] yielded an EC50 (Rattus norvegicus, Hepatocyte) of 44 nM.
Work on `Clc1cc(NCC2CCCC2)c2[nH]c(-c3ccccc3)cc2c1` [Example 49, Cyclopentylmethyl-(5-chloro-2-phenyl-1H-indol-7-yl)-amine] yielded an EC50 (Rattus norvegicus, Hepatocyte) of 133 nM.
`Clc1cc(NCC2CCOCC2)c2[nH]c(-c3ccccc3)cc2c1` [Example 50, (Tetrahydropyran-4-ylmethyl)-(5-chloro-2-phenyl-1H-indol-7-yl)-amine] was tested, and the EC50 (Rattus norvegicus, Hepatocyte) was 43 nM.
For `Clc1cc(NC2CCN(Cc3ccccc3)C2)c2[nH]c(-c3ccccc3)cc2c1` (stereo not drawn) [Example 51, (1-Benzylpyrrolidin-3-yl)-(5-chloro-2-phenyl-1H-indol-7-yl)-amine], the EC50 (Rattus norvegicus, Hepatocyte) was 230 nM.
`CN1CCC(Nc2cc(Cl)cc3cc(-c4ccccc4)[nH]c23)CC1` [Example 52, (1-Methylpiperidin-4-yl)-(5-chloro-2-phenyl-1H-indol-7-yl)-amine] gave an EC50 (Rattus norvegicus, Hepatocyte) of 140 nM.
In the case of `Clc1cc(NC2CCC3(CC2)OCCO3)c2[nH]c(-c3ccccc3)cc2c1` [Example 53, (1,4-Dioxaspiro[4.5]decan-8-yl)-(5-chloro-2-phenyl-1H-indol-7-yl)-amine], the EC50 (Rattus norvegicus, Hepatocyte) is reported as 40 nM.
With `OCC(CO)Nc1cc(Cl)cc2cc(-c3ccccc3)[nH]c12` [Example 54, 2-[(5-Chloro-2-phenyl-1H-indol-7-yl)amino]propan-1,3-diol] the EC50 (Rattus norvegicus, Hepatocyte) was 220 nM.
`O=S1(=O)CCN(Cc2cc(N(CC3CCOCC3)CC3CCOCC3)c3[nH]c(-c4ccccc4)cc3c2)CC1` [Example 57, Di(tetrahydropyran-4-ylmethyl)-[2-phenyl-5-(1,1-dioxo-thiomorpholin-4-yl)methyl-1H-indol-7-yl]amine] gave an EC50 (Rattus norvegicus, Hepatocyte) of 270 nM.
`O=S1(=O)CCN(Cc2cc(N(C3CCOCC3)C3CCOCC3)c3[nH]c(-c4ccccc4)cc3c2)CC1` [Example 58, Di(tetrahydropyran-4-yl)-[2-phenyl-5-(1,1-dioxo-thiomorpholin-4-yl)methyl-1H-indol-7-yl]amine] showed an EC50 (Rattus norvegicus, Hepatocyte) of 260 nM.
Work on `CN1CCC(CNc2cc(F)cc3cc(-c4ccccc4)[nH]c23)CC1` [Example 59, (1-Methyl-piperidinemethyl-4-yl)-[5-fluoro-2-phenyl-1H-indol-7-yl]amine] yielded an EC50 (rat primary hepatocytes) of 200 nM.
With `OCCN1CCC(Nc2cc(F)cc3cc(-c4ccccc4)[nH]c23)CC1` [Example 60, 2-[4-[(5-Fluoro-2-phenyl-1H-indol-7-yl)amino]piperidin-1-yl]ethanol] the EC50 (Rattus norvegicus, Hepatocyte) was 170 nM.
In the case of `Fc1cc(NC2CCN(C3CCOCC3)CC2)c2[nH]c(-c3ccccc3)cc2c1` [Example 61, [1-(Tetrahydropyran-4-yl)piperidin-4-yl]-(5-fluoro-2-phenyl-1H-indol-7-yl)amine], the EC50 (Rattus norvegicus, Hepatocyte) is reported as 260 nM.
With `c1ccc(Oc2cc(NC3CCOCC3)c3[nH]c(-c4ccccc4)cc3c2)cc1` [Example 62, (Tetrahydropyran-4-yl)-(5-phenoxy-2-phenyl-1H-indol-7-yl)-amine] the EC50 (Rattus norvegicus, Hepatocyte) was 110 nM.
`CCN(CC)CCn1c(-c2ccccc2)cc2cc(Cl)cc(NC3CCOCC3)c21` [Example 64, (Tetrahydropyran-4-yl)-[5-chloro-1-(2-diethylaminoethyl)-2-phenyl-1H-indol-7-yl]amine] was tested, and the EC50 (Rattus norvegicus, Hepatocyte) was 260 nM.
In the case of `CN(C)c1cc(Cl)cc2cc(-c3ccccc3)n(C)c12` [Example 65, Dimethyl-(5-chloro-1-methyl-2-phenyl-1H-indol-7-yl)amine], the EC50 (Rattus norvegicus, Hepatocyte) is reported as 600 nM.
In the case of `Clc1cc(NC2CCCC2)c2[nH]c(-c3ccccc3)c(CN3CCOCC3)c2c1` [Example 67, Cyclopentyl-(5-chloro-3-(morpholin-4-yl)methyl-2-phenyl-1H-indol-7-yl)-amine], the EC50 (Rattus norvegicus, Hepatocyte) is reported as < 130 nM.
For `Clc1cc(NC2CCOCC2)c2[nH]c(-c3ccccc3)c(CN3CCOCC3)c2c1` [Example 68, (Tetrahydropyran-4-yl)-(5-chloro-3-(morpholin-4-yl)methyl-2-phenyl-1H-indol-7-yl)-amine], the EC50 (Rattus norvegicus, Hepatocyte) was 320 nM.
With `O=C1CN(Cc2c(-c3ccccc3)[nH]c3c(NC4CCOCC4)cc(Cl)cc23)CCN1` [Example 69, (Tetrahydropyran-4-yl)-(5-chloro-3-(2-oxo-piperazin-4-yl)methyl-2-phenyl-1H-indol-7-yl)-amine] the EC50 (Rattus norvegicus, Hepatocyte) was 355 nM.
`O=C1CN(Cc2c(-c3ccccc3)[nH]c3c(NC4CCCC4)cc(Cl)cc23)CCN1` [Example 70, Cyclopentyl-(5-chloro-3-(2-oxo-piperazin-4-yl)methyl-2-phenyl-1H-indol-7-yl)-amine] showed an EC50 (Rattus norvegicus, Hepatocyte) of 256 nM.
`O=C1CN(Cc2c(-c3ccccc3)[nH]c3c(NCC4CCOCC4)cc(Cl)cc23)CCN1` [Example 71, (Tetrahydropyran-4-ylmethyl)-(5-chloro-3-(2-oxo-piperazin-4-yl)methyl-2-phenyl-1H-indol-7-yl)-amine] was tested, and the EC50 (Rattus norvegicus, Hepatocyte) was 254 nM.
Molecule `O=S1(=O)CCN(Cc2cc(NC3CCOCC3)c3[nH]c(-c4ccccc4)c(Br)c3c2)CC1` [Example 72, (Tetrahydropyran-4-yl)-(3-bromo-5-(1,1-dioxo-thiomorpholin-4-yl)methyl-2-phenyl-1H-indol-7-yl)-amine] has an EC50 (Rattus norvegicus, Hepatocyte) of 60 nM.
Molecule `O=S1(=O)CCN(Cc2cc(NC3CCCC3)c3[nH]c(-c4ccccc4)c(Br)c3c2)CC1` [Example 73, Cyclopentyl-(3-bromo-5-(1,1-dioxo-thiomorpholin-4-yl)methyl-2-phenyl-1H-indol-7-yl)-amine] has an EC50 (Rattus norvegicus, Hepatocyte) of 120 nM.
Work on `O=S1(=O)CCN(Cc2cc(NC3CCOCC3)c3[nH]c(-c4cccc(F)c4)cc3c2)CC1` [Example 75, (Tetrahydropyran-4-yl)-(5-(1,1-dioxo-thiomorpholin-4-yl)methyl-2-(3-fluorophenyl)-1H-indol-7-yl)-amine] yielded an EC50 (Rattus norvegicus, Hepatocyte) of 120 nM.
`CC(C)(C)OC(=O)Nc1ccc(-c2cc3cc(Cl)cc(NC4CCCC4)c3[nH]2)cc1` [Example 78, t-Butyl N-[4-[5-chloro-7-(cyclopentylamino)-1H-indol-2-yl]phenyl]carbamate] was tested, and the EC50 (Rattus norvegicus, Hepatocyte) was 210 nM.
Molecule `Clc1cc(NC2CCOCC2)c2[nH]cc(-c3ccccc3)c2c1` [Example 79, (Tetrahydropyran-4-yl)-(5-chloro-3-phenyl-1H-indol-7-yl)-amine] has an EC50 (Rattus norvegicus, Hepatocyte) of 140 nM.
Molecule `Clc1cc(NC2CCCC2)c2[nH]cc(-c3ccccc3)c2c1` [Example 80, Cyclopentyl-(5-chloro-3-phenyl-1H-indol-7-yl)-amine] has an EC50 (Rattus norvegicus, Hepatocyte) of 100 nM.
With `Clc1cc(NCC2CCOCC2)c2[nH]cc(-c3ccccc3)c2c1` [Example 81, (Tetrahydropyran-4-yl)methyl-(5-chloro-3-phenyl-1H-indol-7-yl)-amine] the EC50 (Rattus norvegicus, Hepatocyte) was 110 nM.
`Nc1ccc(-c2cc3cc(Cl)cc(NC4CCCC4)c3[nH]2)cc1` [Example 82, Cyclopentyl-[2-(4-aminophenyl)-5-chloro-1H-indol-7-yl]-amine] gave an EC50 (Rattus norvegicus, Hepatocyte) of 70 nM.
For `CN1CCC(Nc2ccc(-c3cc4cc(Cl)cc(NC5CCCC5)c4[nH]3)cc2)CC1` [Example 83, Cyclopentyl-{5-chloro-2-[4-(1-methyl-piperidin-4-yl)aminophenyl]-1H-indol-7-yl}-amine], the EC50 (Rattus norvegicus, Hepatocyte) was 50 nM.
Work on `CS(=O)(=O)Nc1ccc(-c2cc3cc(Cl)cc(NC4CCCC4)c3[nH]2)cc1` [Example 84, N-[4-(5-chloro-7-cyclopentylamino-1H-indol-2-yl)-phenyl]methanesulfonamide] yielded an EC50 (Rattus norvegicus, Hepatocyte) of 90 nM.
Molecule `CC(=O)Nc1ccc(-c2cc3cc(CN4CCS(=O)(=O)CC4)cc(NC4CCCC4)c3[nH]2)cc1` [Example 85, Cyclopentyl-{5-(1,1-dioxo-thiomorpholin-4-yl)methyl-2-[4-(acetyl)aminophenyl]-1H-indol-7-yl}-amine] has an EC50 (Rattus norvegicus, Hepatocyte) of 360 nM.
Work on `CC(=O)Nc1ccc(-c2cc3cc(N4CCS(=O)(=O)CC4)cc(NCC4CCOCC4)c3[nH]2)cc1` [Example 87, (Tetrahydropyran-4-yl)methyl-{5-(1,1-dioxo-thiomorpholin-4-yl)-2-[4-(acetyl)aminophenyl]-1H-indol-7-yl}-amine] yielded an EC50 (Rattus norvegicus, Hepatocyte) of 600 nM.
In the case of `CC(=O)Nc1ccc(-c2cc3cc(N4CCS(=O)(=O)CC4)cc(NC(C4CCOCC4)C4CCOCC4)c3[nH]2)cc1` [Example 88, Di(tetrahydropyran-4-yl)methyl-{5-(1,1-dioxo-thiomorpholin-4-yl)-2-[4-(acetyl)aminophenyl]-1H-indol-7-yl}-amine], the EC50 (Rattus norvegicus, Hepatocyte) is reported as > 2000 nM.
In the case of `CC(=O)Nc1ccc(-c2cc3cc(N4CCS(=O)(=O)CC4)cc(NC4CCOCC4)c3[nH]2)cc1` [Example 89, (Tetrahydropyran-4-yl)-{5-(1,1-dioxo-thiomorpholin-4-yl)-2-[4-(acetyl)aminophenyl]-1H-indol-7-yl}-amine], the EC50 (Rattus norvegicus, Hepatocyte) is reported as 300 nM.
Molecule `Cc1cc(NC2CCNCC2)c2[nH]c(-c3ccccc3)cc2c1` [Example 90, (5-Methyl-2-phenyl-1H-indol-7-yl)-piperidin-4-yl-amine] has an EC50 (Rattus norvegicus, Hepatocyte) of 146 nM.
